Results from PubChem BioAssay AID652161 (Sanford-Burnham Center for Chemical Genomics, 2013).
Activity calls are given as the source filed them.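 How the source made its calls: active means IC50 of 25 µM or lower, counted as toxic to worms; inactive means the rest.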

system: C. elegans VP596, manual health composite score, 20-22 h; experiment: C. elegans worm health toxicity scoring, SAR follow-up, cytotoxicity control for SKN-1 inhibitor project, whole organism, strain VP596, composite health score (AID 652161)

Row | Structure (SMILES) | IC50
1 | Clc1ccc(Nc2nc(-c3cccs3)cs2)nc1 | 12.4 µM
2 | Cc1ccc(Nc2nc(-c3cccs3)cs2)nc1 | 27.3 µM (inactive)
3 | c1ccc(-c2nc(-c3ccncc3)no2)cc1 | > 64 µM (inactive)
4 | CCOc1cc(CNCCSc2nnnn2C)cc(Br)c1OCc1ccc(F)cc1 | 16 µM
5 | O=C(Nc1nc2c(ccc3ccccc32)s1)c1ccco1 | 20.3 µM
6 | Clc1ccc(-c2nnc(-c3ccccc3)o2)c(Cl)c1 | 27.9 µM (inactive)
7 | O=C(Nc1nccs1)c1ccc2ccccc2n1 | 16 µM
8 | COc1cc(CNC2CCCC2)cc(Cl)c1OCc1ccc(F)cc1 | 46.9 µM (inactive)
9 | Brc1ccc(-c2nnc(-c3ccco3)o2)cc1 | 12.9 µM
10 | O=C(/C=C/Nc1ccc(F)c(F)c1)c1cccs1 | > 64 µM (inactive)
11 | COc1cc(CNC(C)c2ccccc2)cc(Br)c1OCc1ccc(F)cc1 (stereo not drawn) | > 64 µM (inactive)
12 | CCOC(=O)Nc1nc(-c2ccc(F)cc2F)cs1 | 22.9 µM
13 | O=C(Nc1ccc(CN2CCOCC2)cc1)c1cc2ccccc2o1 | 35.3 µM (inactive)
14 | Fc1ccc(-c2csc(-c3ccncc3)n2)cc1 | 10.6 µM
15 | Cc1ccc(-c2noc(-c3cccs3)n2)cc1 | 10.6 µM
16 | O=C(/C=C/c1ccccc1)Nc1ccc(CN2CCOCC2)cc1 | > 64 µM (inactive)
17 | Brc1ccc(-c2nc(-c3ccccc3)no2)o1 | 11.9 µM
18 | O=C(/C=C/Nc1ccc(F)cc1F)c1ccco1 | 24.1 µM
19 | COc1ccc(C(=O)Nc2nc(-c3cccs3)cs2)cc1 | > 64 µM (inactive)
20 | Cc1cc(OCc2cccc(Cl)c2)c(C)cc1CN1CCOCC1 | 21 µM

Row | Structure (SMILES) | IC50
21 | O=C(/C=C/Nc1ccccc1F)c1cccs1 | 35.2 µM (inactive)
22 | Brc1ccc(CSc2nnc(-c3cccnc3)o2)cc1 | 25.2 µM (inactive)
23 | O=C(Nc1nc(-c2ccc(Cl)s2)cs1)c1ccccc1 | > 64 µM (inactive)
24 | Cc1nc2ccccc2cc1OCc1ccc(F)cc1 | 8.59 µM
25 | Fc1ccc(COc2ccc(-c3nnco3)cc2)cc1 | 34.9 µM (inactive)
26 | c1ccc2sc(SCc3ccc(-c4nnco4)cc3)nc2c1 | 14.5 µM
27 | Clc1ccc(-c2nnc(-c3ccco3)o2)cc1 | 16.9 µM
28 | Clc1ccccc1-c1nc(-c2ccncc2)no1 | 15.3 µM
29 | Cc1ccc2nc(-c3ccc(NC(=S)NC4CC(C)(C)NC(C)(C)C4)cc3)sc2c1 | 62 µM (inactive)
30 | Clc1ccccc1-c1nnc(-c2ccccc2Cl)o1 | 20.9 µM
31 | Cc1oc(-c2ccc(-c3ccccc3)cc2)nc1CN(C)C1CCOC1 (stereo not drawn) | > 64 µM (inactive)
32 | Cc1ccc(N=C/C(C(=O)C(F)(F)F)=C(\O)c2ccco2)cc1Cl | 27.2 µM (inactive)
33 | O=C(/C=C/c1cccs1)c1ccc(Br)cc1 | 11.6 µM
34 | O=C(/C=C/c1ccc(Br)cc1)c1ccc(NC2=NCCCS2)cc1 | 20.1 µM
35 | CCOC(=O)c1c(-c2ccc(-c3ccccc3)cc2)csc1NC(=O)CNCCN(C)C | > 64 µM (inactive)
36 | O=C(/C=C/Nc1ccc(Br)cc1F)c1ccco1 | 14.8 µM
37 | c1ccc(-c2csc(-c3ccncc3)n2)cc1 | 23.9 µM
38 | CCOc1ccc(-c2nc(-c3cccnc3)no2)cc1 | 8.88 µM
39 | Cc1ccccc1-c1noc(-c2cccs2)n1 | 7.83 µM
40 | O=C(Nc1nc(-c2ccc(Cl)s2)cs1)c1cccs1 | > 64 µM (inactive)

Row | Structure (SMILES) | IC50
41 | CCc1ccc(-c2nc(-c3ccncc3)no2)cc1 | 10.6 µM
42 | CCOc1cc(CNC2CCCC2)cc(Cl)c1OCc1ccccc1 | > 64 µM (inactive)
43 | O=C(/C=C/Nc1ccc(F)cc1F)c1cccs1 | 21.4 µM
44 | c1ccc(-c2csc(Nc3ccccn3)n2)cc1 | 6.56 µM
45 | c1ccc(SCc2cc(-c3ccccc3)no2)cc1 | 11.5 µM
46 | c1ccc(Nc2nc(-c3cccs3)cs2)nc1 | 14.9 µM
47 | CSc1cccc(NC(=O)c2cccc3cccnc23)c1 | 47 µM (inactive)
48 | Fc1ccc(-c2csc(Nc3ccccn3)n2)cc1 | 7.02 µM
49 | Brc1ccc(CSc2nnc(-c3ccco3)o2)cc1 | 8.76 µM
50 | CC(C)c1ccc(C(=O)Nc2ccc(CN3CCOCC3)cc2)cc1 | 14.7 µM
51 | Fc1ccc(COc2ccc(-c3nnco3)cc2)c(Cl)c1 | 8.11 µM
52 | Cc1ccc(CSc2nnc(-c3ccco3)o2)cc1 | 19.1 µM
53 | O=C(Nc1nc(-c2ccc(Cl)s2)cs1)c1ccco1 | 16.1 µM
54 | c1ccc2oc(SCc3nc4ccccc4s3)nc2c1 | 13.9 µM
55 | O=C(/C=C/Nc1ccc(F)c(Cl)c1)c1ccco1 | 18.8 µM
56 | CCOc1cc(CNC2CCCC2)cc(Cl)c1OCc1ccc(F)cc1 | > 64 µM (inactive)
57 | O=C(Nc1nc(-c2ccccc2)cs1)c1cccs1 | 15 µM
58 | COc1cc(CNC(C)(C)CO)cc(Br)c1OCc1ccc(Cl)cc1 | 56.3 µM (inactive)
